# Laboratory results published in patent publication US12029791B2, “Therapeutic conjugates” (Totus Medicines Inc., priority 2019, dated 2024).
# Test system: PI3-kinase
# Assay: NanoBRET screening of ARCS for covalent binding in transfected HEK293 cells
# Set-up: species or system Human
# Conditions: HEK293 cells transfected with NanoLuc-target fusion, overnight incubation, washout
# Procedure: Human embryonic kidney 293-H (HEK 293, Gibco 293-H, #11631017) cell lines are maintained in Dulbecco's Modified Eagle Medium, high glucose, pyruvate (DMEM, Gibco, #11995065) supplemented with 10% fetal bovine serum (FBS, Gibco, #10082147) and 1× penicillin-streptomycin (100× solution, Gibco, #15140148) at 37° C. and 5% CO2 in a water-saturated incubator. Cell are trypsinized using 0.05% or 0.25% Trypsin-EDTA solution (Trypsin-EDTA, phenol red, Gibco, #25200056 (0.25%) or #25300054). Opti-MEM media supplemented with 10% fetal bovine serum (Opti-MEM I reduced serum media, no phenol red, Gibco, #11058021) is used for culturing cells overnight for NanoBRET readout experiments.
# HEK293 cells are cultivated appropriately prior to assay. The medium from cell flask is removed via aspiration, washed 1× with PBS followed by aspiration, trypsinized, and cells are allowed to dissociate from the flask. Trypsin is neutralized using growth medium and cells are pelleted via centrifugation at 200×g for 5 minutes. The medium is aspirated and the cells are resuspended into a single cell suspension using Opti-MEM I supplemented with 10% FBS. The cell density is adjusted to 2×10^5/mL in Opti-MEM I supplemented with 10% FBS in a sterile, conical tube. The cells are transfected and aliquoted directly in a 96-well plate for the NanoBRET assay the next day, and therefore, the cells are cultured overnight in Opti-MEM. The cells are also transfected in bulk and dispensed into a 96-well plate to allow cells to adhere to the plate overnight, thereby enabling washout studies.
# The lipid:DNA complexes are prepared as follows:
# A 10 μg/mL solution of DNA is prepared in Opti-MEM without serum. This solution contains the following ratios of carrier DNA and DNA encoding NanoLuc fused to the biological target. Serial dilution steps may be warranted to accurately dilute the NanoLuc fusion DNA. Added, in order, the following reagents to a sterile polystyrene test tube: 1 mL of Opti-MEM without phenol red; 9.0 μg/mL of carrier DNA; 1.0 μg/mL of NanoLuc fusion DNA (for some targets, the amount is less). The reagents are mixed thoroughly.
# 30 μL of FuGENE HD is added into each mL of DNA mixture to form lipid:DNA complex. […] It is mixed by pipetting up and down 5-10 times and incubated at room temperature for 20 minutes to allow complexes to form. 1 part (e.g. 1 mL) of lipid:DNA complex is mixed with 20 parts (e.g. 20 mL) of HEK293 cells in suspension at 2×10^5/mL and mixed gently by pipetting up and down 5 times in a sterile, conical tube. Larger or smaller bulk transfections are scaled accordingly, using this ratio. 100 μL cells+lipid:DNA complex is dispensed into a sterile, tissue-culture treated 96-well plate (20,000 cells/well), and incubated at least 16 hours to allow expression. The cells are incubated in a 37° C.+5% CO2 incubator for >16 hrs. A serially diluted inhibitor or test compound is prepared at 100× final concentration in 100% DMSO. The serially diluted inhibitor stock is prepared in PCR plates. 1 μL per well of 100× serially diluted inhibitor/test compound is added to the cells in 96-well plates that have been transiently transfected overnight and mixed by tapping the plate by hand. The plate is incubated at 37° C.+5% CO2 incubator overnight. A 1× solution of substrate mix (500× stock) and appropriate concentration of tracer is prepared in Opti-Mem. The cells are washed by setting a plate washer to the 96 well plate 5× in PBS pH 7.4 by adding 200 μL PBS each time. The cells are incubated at 37° C. for 2 hours. 100 μL of the 1× Substrate-Tracer solution is added and the 96 well plate is gently tapped to mix. The plate on plate reader is read every hour for the next 6 hours. The binding assays of some ARCS are shown below. Compound 1-XXXII formed a covalent bond with PI3-kinase from about 5% to 20%. ARCS selected from the group consisting of Compounds 1-101, 1-102, 1-113, 1-114, 1-119, 1-120, 1-125 and 1-126 formed a covalent bond with PI3-kinase from about 80% to 100%. […]
row,SMILES,Binding (Percent inhibition)
1,C=CC(=O)CCC(=O)N1CCN(Cc2cc3c(N4CCOCC4)nc(-c4cnc(NC(=O)OC)cc4C(F)(F)F)nn3c2)CC1 [Compound 1-101],+++ (>80%)
2,C=CC(=O)NCC(=O)N1CCN(Cc2cc3c(N4CCOCC4)nc(-c4cnc(NC(=O)OC)cc4C(F)(F)F)nn3c2)CC1 [Compound 1-102],+++ (>80%)
3,COC(=O)Nc1cc(C(F)(F)F)c(-c2nc(N3CCOCC3)c3cc(CN4CCN(C(=O)CCC(=O)C=C(C)C)CC4)cn3n2)cn1 [Compound 1-113],+++ (>80%)
4,COC(=O)Nc1cc(C(F)(F)F)c(-c2nc(N3CCOCC3)c3cc(CN4CCN(C(=O)CNC(=O)C=C(C)C)CC4)cn3n2)cn1 [Compound 1-114],+++ (>80%)
5,COC(=O)Nc1cc(C(F)(F)F)c(-c2nc(N3CCOCC3)c3cc(CN4CCN(C(=O)CCC(=O)/C=C/CN(C)C)CC4)cn3n2)cn1 [Compound 1-119],+++ (>80%)
6,COC(=O)Nc1cc(C(F)(F)F)c(-c2nc(N3CCOCC3)c3cc(CN4CCN(C(=O)CNC(=O)/C=C/CN(C)C)CC4)cn3n2)cn1 [Compound 1-120],+++ (>80%)
7,CC#CC(=O)CCC(=O)N1CCN(Cc2cc3c(N4CCOCC4)nc(-c4cnc(NC(=O)OC)cc4C(F)(F)F)nn3c2)CC1 [Compound 1-125],+++ (>80%)
8,CC#CC(=O)NCC(=O)N1CCN(Cc2cc3c(N4CCOCC4)nc(-c4cnc(NC(=O)OC)cc4C(F)(F)F)nn3c2)CC1 [Compound 1-126],+++ (>80%)
9,C=CC(=O)Nc1ccc(C(=O)N2CCN(Cc3cc4c(N5CCOCC5)nc(-c5cnc(NC(=O)OC)cc5C(F)(F)F)nn4c3)CC2)cc1 [Compound 1-171],++ (50-80%)
10,C=CC(=O)Nc1ccc(CCNCc2cc3c(N4CCOCC4)nc(-c4cnc(NC(=O)OC)cc4C(F)(F)F)nn3c2)cc1 [Compound 1-172],++ (50-80%)
11,COC(=O)Nc1cc(C(F)(F)F)c(-c2nc(N3CCOCC3)c3cc(CN4CCNCC4)cn3n2)cn1 [Compound 1-XXXII],+ (<20%)
